Source: patent US12534477B2, “Compound having KHK inhibitory effect” (HANGZHOU ZHONGMEIHUADONG PHARMACEUTICAL CO., LTD., priority 2019, dated 2026)
Like-named read-outs stand apart in the source and are kept apart here.

Assays:
[1] = Liver-blood ratio, tissue distribution in rats; type: in vivo, SD rats; details: SD, rat, 1 mg/kg, PO 1 mpk
Protocol: Tissue distribution of compounds in SD rats was tested.
In the experiment, candidate compounds were formulated as clear solutions and administered to rats in a single oral dose (PO, 1 mpk). The vehicle for oral administration was a certain proportion of methylcellulose and Tween 80 in water. Whole blood was collected at a certain time and plasma was prepared, and tissues were collected at the corresponding time and prepared into tissue homogenates. Drug concentration was analyzed by LC-MS/MS, and pharmacokinetic parameters were calculated by Phoenix WinNonlin software.

[2] = biological target: Recombinant Human Ketohexokinase (KHK) (Homo sapiens (Human), UniProt P50053); experiment: Ketohexokinase assay (KHK assay), ADP-Glo; type: biochemical
Recombinant Human Ketohexokinase (KHK), sequence (P50053 whole entry): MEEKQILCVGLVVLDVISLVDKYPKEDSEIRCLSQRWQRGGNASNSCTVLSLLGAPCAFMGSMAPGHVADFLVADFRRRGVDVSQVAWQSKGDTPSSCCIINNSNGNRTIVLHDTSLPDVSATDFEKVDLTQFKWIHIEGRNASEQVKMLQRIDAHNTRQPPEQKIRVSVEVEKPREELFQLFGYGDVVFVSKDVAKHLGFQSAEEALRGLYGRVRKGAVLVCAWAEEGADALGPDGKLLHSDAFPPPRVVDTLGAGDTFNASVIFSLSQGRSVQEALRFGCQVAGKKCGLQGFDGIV
Protocol: • 1. EnVision multilabel reader, Perkin Elmer; • 2. OptiPlate 384-well microplate, Perkin Elmer, Cat. No. 6007290; • 3. Recombinant Human Ketohexokinase (KHK), R&D Cat. No.: 8177-HK-020, Lot No.: DDFK0117092; • 4. Fructose (D(−)-Fructose), SCR Cat. No.: 36003034; and • 5. ADP-Glo kinase assay kit, Promega_Cat. No.: V9101.
1. preparation of Dilution Buffer containing 50 mM hydroxyethylpiperazine […] (Hepes), 140 mM KCl, 3.5 mM MgCl2, and 0.01% bovine serum albumin (BSA), pH 7.4.
2. A working solution of ketohexokinase at 2.5 times concentration was prepared with Dilution Buffer, with 50 nM ketohexokinase and 12.5 mM fructose.
3. A working solution of adenosine triphosphate (ATP) at 2.5 times concentration was prepared with Dilution Buffer, with a concentration of 250 μM.
4. Each compound was diluted starting at a concentration of 500 μM, 3-fold diluted for 9 concentration points. The final concentration of the compound in the reaction system started from 10 μM and the final concentration of dimethyl sulfoxide (DMSO) was 2%.
5. A 96-well plate was prepared as a reaction plate, and was incubated at room temperature for 5 min after adding 6 μL ketohexokinase working solution at 2.5 times concentration to each well and further adding 3 μL compound working solution to each well.
6. The first well of each row was a positive control for a compound, i.e. the same volume of the buffer was added to replace the compound and ketohexokinase. The last well was a negative control for the compound, i.e. the same volume of Dilution Buffer was added instead of the compound.
7. 6 μL ATP working solution was added to each well in a 96-well reaction plate to initiate the kinase reaction. The kinase reaction was incubated in a constant temperature heater at 28° C. for 1 h.
1. A384 plate was prepared as a detection plate, and firstly 5 μL ADP-Glo reagent was added.
2. 5 μL kinase reaction mixture from the reaction plate was added to each well and incubated in a constant temperature heater at 28° C. for 30 min.
3. 10 μL kinase detection reagent was added to each well and incubated in a constant temperature heater at 28° C. for 30 min.
4. The detection plate was placed in an EnVision multilabel reader to read the chemiluminescent signal.

[3] = tested on: fructose metabolism in mice; experiment: Acute fructose feeding experiment in mice; type: in vivo; details: compound 10 mpk, oral fructose 1 g/kg
Protocol: The effect of test compounds on the fructose content in mice with high fructose intake was investigated.
All animals were acclimated for one week in an animal house, fed with normal chow and fasted for 16 hours before being given fructose.
1) The experiment began at −0.5 hr. A control group was given a certain volume of vehicle (a certain proportion of methylcellulose and Tween 80 in water), and an experimental group was given a certain dose of a solution of the compound (the administered volume was consistent with the vehicle).
2) 0.5 hour later and before administration of a fructose solution, a blood sample was collected at 0 hr, followed by oral administration of 1 g/kg of an aqueous fructose solution.
3) After the administration of fructose, blood samples were collected from saphenous vein of mice at 0.25, 0.5, 1, 2, 3 and 8 hr, and fructose concentration was analyzed by LC-MS/MS.

CYP1A2 = CYP1A2 (Homo sapiens (Human), UniProt P05177); type: in vitro ADME; details: human, microsomes, 10 min
CYP1A2, sequence (P05177 whole entry): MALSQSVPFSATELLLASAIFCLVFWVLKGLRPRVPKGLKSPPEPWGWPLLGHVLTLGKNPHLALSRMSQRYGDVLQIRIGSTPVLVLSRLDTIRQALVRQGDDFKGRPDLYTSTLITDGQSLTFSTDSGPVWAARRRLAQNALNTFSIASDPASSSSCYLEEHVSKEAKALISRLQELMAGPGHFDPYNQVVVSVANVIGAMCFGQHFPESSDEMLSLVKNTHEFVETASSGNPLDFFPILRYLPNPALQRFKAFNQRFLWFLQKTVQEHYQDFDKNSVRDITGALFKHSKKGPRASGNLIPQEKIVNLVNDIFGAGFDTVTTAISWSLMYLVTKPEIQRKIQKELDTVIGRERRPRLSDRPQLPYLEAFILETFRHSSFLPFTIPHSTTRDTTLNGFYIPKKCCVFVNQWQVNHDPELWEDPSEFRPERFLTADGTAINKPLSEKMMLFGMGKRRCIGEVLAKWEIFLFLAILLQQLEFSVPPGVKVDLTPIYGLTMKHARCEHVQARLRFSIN
Protocol: The inhibitory effect of test compounds on the activity of human hepatic microsomal cytochrome P450 isozymes (CYP1A2, CYP2C9, CYP2C19, CYP2D6 and CYP3A4) was determined.
First, the test compound (10 mM) was diluted in gradient to prepare working solutions (100×final concentration) with working solution concentrations: 5, 1.5, 0.5, 0.15, 0.05, 0.015, 0.005 mM, respectively, and at the same time, working solutions of each positive inhibitor of P450 isozymes (CYP1A2, CYP2C9, CYP2C19, CYP2D6 and CYP3A4) and its specific substrate mixture were prepared. Human liver microsomes frozen in a −80° C. refrigerator were thawed on ice, and diluted with PB (phosphate buffer) after all the human liver microsomes were dissolved, to prepare a working solution at a certain concentration (0.253 mg/mL). 20 μl substrate mixture was added to the reaction plate (20 μL PB was added to the Blank wells) while 158 μL human liver microsome working solution was added to the reaction plate which was placed on ice for later use. At this time, 2 μL of each concentration of the test compound (N=1) and the specific inhibitor (N=2) were added to the corresponding wells, and the corresponding organic solvents were added to the groups without inhibitors (the test compound or the positive inhibitor) as control samples (1:1 DMSO:MeOH for the test compound control sample, and 1:9 DMSO:MeOH for the positive control sample). After pre-incubation in 37° C. water bath for 10 min, 20 μL coenzyme factor (NADPH) solution was added to the reaction plate, and incubated in 37° C. water bath for 10 min. 400 μL cold acetonitrile solution (200 ng/mL Tolbutamide and Labetalol as the internal standard) was added to stop the reaction. The reaction plate was placed on a shaker and shaken for 10 min. The mixture was centrifuged at 4,000 rpm for 20 min, and 200 μl the supernatant was added to 100 μL water for sample dilution. Finally, the plate was sealed, shaken, mixed well and detected by LC/MS/MS.

[4] = brain, read-out: Brain tissue concentration
[5] = brain/plasma, read-out: Brain-blood ratio
[6] = liver, read-out: Liver tissue concentration
[7] = liver/plasma, read-out: Liver-blood ratio
[8] = plasma, read-out: Plasma concentration

## C[C@H]1CCN1c1nc(N2C[C@@H]3[C@@H](CC(=O)O)[C@@H]3C2)c2ccsc2n1 [WX004]
[1]; [4]
  concentration at 1.5 h: 0.105 µM
  concentration at 2 h: 0.148 µM
  concentration at 6 h: 0.071 µM
[1]; [5]
  Kp at 1.5 h: 0.022
  Kp at 2 h: 0.019
  Kp at 6 h: 0.023
[1]; [6]
  concentration at 1.5 h: 4.42 µM
  concentration at 2 h: 6.37 µM
  concentration at 6 h: 3.9 µM
[1]; [7]
  Kp at 1.5 h: 0.943
  Kp at 2 h: 0.821
  Kp at 6 h: 1.22
[1]; [8]
  concentration at 1.5 h: 4.67 µM
  concentration at 2 h: 7.75 µM
  concentration at 6 h: 3.67 µM
[2]
  IC50: 49 nM
[3]
  AUC of integral fructose concentration for dosed group: 2194 nM·h
  AUC of integral fructose concentration of dosed group/AUC of Integral fructose concentration of control group: 5.0
CYP1A2
  IC50: > 50000 nM
